Where two headings read alike, the source gives them in different places.
Experiments:
[1] = tested on: DU 145 prostate tumor cell line; experiment: mouse model of prostate cancer, efficacy against established tumors; format: in vivo; settings: Example 4; DU 145 prostate tumors in mice; COX 125 ppm in feed; VEGF 100 mg/kg p.o. q.d. 5x/week for three weeks
Method: (§1) 5-methyl-2-(2′-chloro-6′-fluoro-anilino)-phenyl acetic acid (“COX”) and 1-(4-chloroanilino)-4-(4-pyridylmethyl)phthalazine (“VEGFR”) are tested as single agents and together as combination therapy in a mouse model of prostrate cancer (orthoscopically implanted DU 145 prostate tumor cell line) for efficacy against established tumors. VEGFR is administered to the mice orally at 100 mg/kg, 5 times a week for three weeks, as a suspension in 0.5% microcrystalline cellulose, 0.1% Tween 80 in water. COX is administered in the feed mix at a concentration of 125 ppm.

[2] = Example 4; DU 145 prostate tumors in mice; COX 125 ppm in feed; VEGF 100 mg/kg p.o. q.d. 5x/week for three weeks
Method: as §1

[3] = tested on: tumor vascular permeability; settings: studies in humans; cited from earlier work
intestinal polyps = experiment: mouse model of adenomatous polyposis, prevention and treatment of intestinal polyps; format: in vivo; settings: COX 125 ppm in feed ad libitum
Method: (§2) 5-methyl-2-(2′-chloro-6′-fluoro-anilino)-phenyl acetic acid (“COX”) and (+)-discodermolide (“disco”) are tested as single agents and together as combination therapy in a mouse model of adenomatous polyposis for the prevention and treatment of intestinal polyps. (+)-Discodermolide is administered once intravenously to the mice at 15 mg/kg as a solution in 16.7% Chremophor EI, 8.3% ethanol, and 75% D5W. COX is administered in the feed mix at a concentration of 125 ppm.
(§3) 5-methyl-2-(2′-chloro-6′-fluoro-anilino)-phenyl acetic acid (“COX”) and (R)-4-(4-((1-phenylethyl)amino)-7H-pyrrolo(2,3-d)pyrimidin-6-yl)-phenol (“EGFR”) are tested as single agents and together as combination therapy in a mouse model of adenomatous polyposis for the prevention and treatment of intestinal polyps. EGFR is administered to the mice orally at 50 mg/kg, as a suspension in 0.5% carboxymethylcellulose, b.i.d., 5 days a week for three weeks. COX is administered in the feed mix at a concentration of 125 ppm.
(§4) 5-methyl-2-(2′-chloro-6′-fluoro-anilino)-phenyl acetic acid (“COX”) and 1-(4-chloroanilino)-4-(4-pyridylmethyl)phthalazine (“VEGFR”) are tested as single agents and together as combination therapy in a mouse model of adenomatous polyposis for the prevention and treatment of intestinal polyps. VEGFR is administered to the mice orally at 100 mg/kg, 5 times a week for three weeks. COX is administered in the feed mix at a concentration of 125 ppm.

[4] = COX 125 ppm in feed ad libitum
Method: as §2, §3, §4

[5] = Example 3, first experiment, VEGF 100 mg/kg p.o. 5x/week for three weeks
[6] = Example 3, second (duplicate) experiment, VEGF 100 mg/kg p.o. 5x/week for three weeks
[7] = Example 1, first experiment, disco 15 mg/kg i.v. once
[8] = Example 1, second (duplicate) experiment, disco 15 mg/kg i.v. once
[9] = Example 2, first experiment, EGFR 50 mg/kg p.o. b.i.d. 5x/week for three weeks
[10] = Example 2, second (duplicate) experiment, EGFR 50 mg/kg p.o. b.i.d. 5x/week for three weeks

Molecule	% T/C (tumors) [1] [%]	Mean Tumor Weight (mg ± SEM) [1] [mg]	Dead/Total [2]	% T/C (polyps) (intestinal polyps; [5]) [%]	Mean Intestinal Polyp Count (# ± SEM) (intestinal polyps; [5])	% T/C (polyps) (intestinal polyps; [6]) [%]	Mean Intestinal Polyp Count (# ± SEM) (intestinal polyps; [6])	Dead/Total [4, 5]	Dead/Total [4, 6]	% T/C (polyps) (intestinal polyps; [7]) [%]	Mean Intestinal Polyp Count (# ± SEM) (intestinal polyps; [7])	% T/C (polyps) (intestinal polyps; [8]) [%]	Mean Intestinal Polyp Count (# ± SEM) (intestinal polyps; [8])	Dead/Total [4, 7]	Dead/Total [4, 8]	% T/C (polyps) (intestinal polyps; [9]) [%]	Mean Intestinal Polyp Count (# ± SEM) (intestinal polyps; [9])	% T/C (polyps) (intestinal polyps; [10]) [%]	Mean Intestinal Polyp Count (# ± SEM) (intestinal polyps; [10])	Dead/Total [4, 9]	further results
Clc1ccc(Nc2nnc(Cc3ccncc3)c3ccccc23)cc1 [VEGF, 1-(4-chloroanilino)-4-(4-pyridylmethyl)phthalazine]	57	243 ± 37	1/12	57	15 ± 0.48 #	60	17 ± 0.19 #	0/6	0/7												tolerability [3]: well tolerated; tumor vascular permeability [3]: reduce tumor vascular permeability
(+)-discodermolide										56	15 ± 0.2 #	64	15 ± 0.22 #	0/7	0/7						% Body Wt. Change [4, 7]: +0.9 ± 0.1%; % Body Wt. Change [4, 8]: +4.0 ± 0.12%
C[C@@H](Nc1ncnc2[nH]c(-c3ccc(O)cc3)cc12)c1ccccc1 [EGFR, (R)-4-(4-((1-phenylethyl)amino)-7H-pyrrolo(2,3-d)pyrimidin-6-yl)-phenol]																37	8 ± 0.2 #	27	9 ± 0.3 #	0/7	Dead/Total [4, 10]: 0/7
Cc1ccc(Nc2c(F)cccc2Cl)c(CC(=O)O)c1 [COX, 5-methyl-2-(2′-chloro-6′-fluoro-anilino)-phenyl acetic acid]	80	343 ± 52	1/12	44	12 ± 0.22 #	44	13 ± 0.18 #	0/7	0/7	56	15 ± 0.4 #	57	13 ± 0.2 #	0/7	0/7	43	9 ± 0.4 #	36	12 ± 0.9 #	0/7	Dead/Total [4, 10]: 0/7

Source: US20110046190A1, “COMBINATIONS COMPRISING A SELECTIVE CYCLOOXYGENASE-2 INHIBITOR” (priority 2001, published 2011)
